Laboratory results reported in ChEMBL document CHEMBL4765259, “Synthesis and biological evaluation of novel shikonin-benzo[b]furan derivatives as tubulin polymerization inhibitors targeting the colchicine binding site” (Eur J Med Chem, 2020).
Activity calls are given as the source filed them. The calls are words filed in the database; no cut-off is given here.

Experiments:
[1] = Half life in Sprague-Dawley rat at 1.5 mg/kg, iv by UPLC/MS analysis; format: ADME, organism-based; conditions: in vivo
[2] = Mean residence time (0 to infinity) in Sprague-Dawley rat at 1.5 mg/kg, iv by UPLC/MS analysis; format: ADME, organism-based; conditions: in vivo
[3] = AUC (0 to infinity) in Sprague-Dawley rat at 1.5 mg/kg, iv by UPLC/MS analysis; format: ADME, organism-based; design: time infinity, route intravenous, dose 1.5 mg/kg; conditions: in vivo
[4] = Apparent volume of distribution in Sprague-Dawley rat at 1.5 mg/kg, iv by UPLC/MS analysis; format: ADME, organism-based; conditions: in vivo, read-out: Vz
HT-29 [5] = test: Induction of microtubule disruption in human HT-29 cells at 0.5 uM incubated for 24 hrs by DAPI staining based confocal fluorescence microscopic analysis; format: cell-based
HepG2 = test: Antiproliferative activity against human HepG2 cells incubated for 48 hrs by MTT assay; format: functional, cell-based; conditions: HepG2, 48 h
HT-29 [6] = test: Antiproliferative activity against human HT29 cells incubated for 48 hrs by MTT assay; format: functional, cell-based; conditions: HT-29, 48 h
[7] = Antiproliferative activity against human HEK293T cells incubated for 48 hrs by MTT assay; format: cell-based, HEK-293T
[8] = Antiproliferative activity against human LO2 cells incubated for 48 hrs by MTT assay; format: cell-based, L02
K562 [9] = test: Antiproliferative activity against drug resistant human K562 cells incubated for 48 hrs by MTT assay; format: functional, cell-based; conditions: K562, 48 h
[10] = Inhibition of tubulin polymerization (unknown origin) measured every 2 mins for 60 mins by spectrophotometric method; design: species or system Homo sapiens
HT-29 [11] = test: Cell cycle arrest in human HT29 cells assessed as cell accumulation at G1 phase at […] incubated for 24 hrs by propidium iodide staining based flow cytometry (reference value: 69.19 %); format: functional; conditions: dose 0.25 µM
HT-29 [12] = test: Cell cycle arrest in human HT29 cells assessed as cell accumulation at G2 phase at […] incubated for 24 hrs by propidium iodide staining based flow cytometry (reference value: […]); format: functional; conditions: dose 0.25 µM
HT-29 [13] = test: Cell cycle arrest in human HT29 cells assessed as cell accumulation at S phase at […] incubated for 24 hrs by propidium iodide staining based flow cytometry (reference value: […] %); format: functional; conditions: dose 0.25 µM
HT-29 [14] = test: Cell cycle arrest in human HT29 cells assessed as cell accumulation at G1 phase at 0.5 uM incubated for 24 hrs by propidium iodide staining based flow cytometry (reference value: 69.19 %); format: functional
HT-29 [15] = test: Cell cycle arrest in human HT29 cells assessed as cell accumulation at G2 phase at 0.5 uM incubated for 24 hrs by propidium iodide staining based flow cytometry (reference value: […]); format: functional
HT-29 [16] = test: Cell cycle arrest in human HT29 cells assessed as cell accumulation at S phase at 0.5 uM incubated for 24 hrs by propidium iodide staining based flow cytometry (reference value: […] %); format: functional
HT-29 [17] = test: Cell cycle arrest in human HT29 cells assessed as cell accumulation at G1 phase at 1 uM incubated for 24 hrs by propidium iodide staining based flow cytometry (reference value: 69.19 %); format: functional
HT-29 [18] = test: Cell cycle arrest in human HT29 cells assessed as cell accumulation at G2 phase at 1 uM incubated for 24 hrs by propidium iodide staining based flow cytometry (reference value: […]); format: functional
HT-29 [19] = test: Cell cycle arrest in human HT29 cells assessed as cell accumulation at S phase at 1 uM incubated for 24 hrs by propidium iodide staining based flow cytometry (reference value: […] %); format: functional
HT-29 [20] = test: Induction of apoptosis in human HT-29 cells assessed as viable cells at […] measured after 24 hrs by Annexin V-FITC/propidium iodide staining based flow cytometry (reference value: 98.3 %); format: functional; conditions: dose 0.25 µM, read-out: Activity
HT-29 [21] = test: Induction of apoptosis in human HT-29 cells assessed as early apoptotic cells at […] measured after 24 hrs by Annexin V-FITC/propidium iodide staining based flow cytometry (reference value: 1.6 %); format: functional; conditions: dose 0.25 µM
HT-29 [22] = test: Induction of apoptosis in human HT-29 cells assessed as late apoptotic cells at […] measured after 24 hrs by Annexin V-FITC/propidium iodide staining based flow cytometry (reference value: 0.0 %); format: functional; conditions: dose 0.25 µM
HT-29 [23] = test: Induction of apoptosis in human HT-29 cells assessed as necrotic cells at […] measured after 24 hrs by Annexin V-FITC/propidium iodide staining based flow cytometry (reference value: 0.1 %); format: functional; conditions: dose 0.25 µM
HT-29 [24] = test: Induction of apoptosis in human HT-29 cells assessed as viable cells at 0.5 uM measured after 24 hrs by Annexin V-FITC/propidium iodide staining based flow cytometry (reference value: 98.3 %); format: functional; conditions: read-out: Activity
HT-29 [25] = test: Induction of apoptosis in human HT-29 cells assessed as early apoptotic cells at 0.5 uM measured after 24 hrs by Annexin V-FITC/propidium iodide staining based flow cytometry (reference value: 1.6 %); format: functional
HT-29 [26] = test: Induction of apoptosis in human HT-29 cells assessed as late apoptotic cells at 0.5 uM measured after 24 hrs by Annexin V-FITC/propidium iodide staining based flow cytometry (reference value: 0.0 %); format: functional
HT-29 [27] = test: Induction of apoptosis in human HT-29 cells assessed as necrotic cells at 0.5 uM measured after 24 hrs by Annexin V-FITC/propidium iodide staining based flow cytometry (reference value: 0.1 %); format: functional
HT-29 [28] = test: Induction of apoptosis in human HT-29 cells assessed as viable cells at 1 uM measured after 24 hrs by Annexin V-FITC/propidium iodide staining based flow cytometry (reference value: 98.3 %); format: functional; conditions: read-out: Activity
HT-29 [29] = test: Induction of apoptosis in human HT-29 cells assessed as early apoptotic cells at 1 uM measured after 24 hrs by Annexin V-FITC/propidium iodide staining based flow cytometry (reference value: 1.6 %); format: functional
HT-29 [30] = test: Induction of apoptosis in human HT-29 cells assessed as late apoptotic cells at 1 uM measured after 24 hrs by Annexin V-FITC/propidium iodide staining based flow cytometry (reference value: 0.0 %); format: functional
HT-29 [31] = test: Induction of apoptosis in human HT-29 cells assessed as necrotic cells at 1 uM measured after 24 hrs by Annexin V-FITC/propidium iodide staining based flow cytometry (reference value: 0.1 %); format: functional
HCT-116 = test: cells; conditions: Homo sapiens, HCT-116, 48 h
Description: Antiproliferative activity against human HCT116 cells incubated for 48 hrs by MTT assay

MDA-MB-231 = test: cells; conditions: Homo sapiens, MDA-MB-231, 48 h
A549 = test: cells; conditions: Homo sapiens, A549, 48 h
MCF7 [32] = test: cells; conditions: Homo sapiens, MCF7, 48 h
MCF7 [33] = test: cells; conditions: Homo sapiens, MCF7, 48 h; remark: listed apart in the source
Description: Antiproliferative activity against drug-resistant human MCF7 cells incubated for 48 hrs by MTT assay

K562 [34] = test: cells; conditions: Homo sapiens, K562, 48 h
Description: Antiproliferative activity against human K562 cells incubated for 48 hrs by MTT assay

SMILES: COc1ccc2cc(C(=O)O[C@H](CC=C(C)C)C3=CC(=O)c4c(O)ccc(O)c4C3=O)oc2c1
- half-life [1]: 3.81 h
- MRT inf [2]: 5.12 h
- AUC(0-inf) [3]: 2160 ng·h/mL
- Vd [4]: 3.35 L/kg

SMILES: CC(=O)O[C@H]1C(=O)[C@@]2(C)[C@H]([C@H](OC(=O)c3ccccc3)[C@]3(O)C[C@H](OC(=O)[C@H](O)[C@@H](NC(=O)c4ccccc4)c4ccccc4)C(C)=C1C3(C)C)[C@]1(OC(C)=O)CO[C@@H]1C[C@@H]2O
- Activity (HT-29 [5]): inactive

SMILES: COc1cc2c(c(OC)c1OC)-c1ccc(OC)c(=O)cc1[C@@H](NC(C)=O)CC2 [COLCHICINE]
- IC50 (HepG2): 1.47 µM
- IC50 (HT-29 [6]): 1.81 µM
- CC50 at 48 h [7]: 8.43 µM
- CC50 at 48 h [8]: 9.18 µM
- IC50 (K562 [9]): 6.59 µM
- IC50 [10]: 2.11 µM
- Activity (HT-29 [11]): 57.62%
- Activity (HT-29 [12]): 17.73%
- Activity (HT-29 [13]): 24.65%
- Activity (HT-29 [14]): 27.11%
- Activity (HT-29 [15]): 18.25%
- Activity (HT-29 [16]): 54.64%
- Activity (HT-29 [17]): 23.93%
- Activity (HT-29 [18]): 40.41%
- Activity (HT-29 [19]): 35.66%
- viability at […] (HT-29 [20]): 87%
- Activity (HT-29 [21]): 7.6%
- Activity (HT-29 [22]): 5.2%
- Activity (HT-29 [23]): 0.3%
- viability at 0.5 µM (HT-29 [24]): 76.1%
- Activity (HT-29 [25]): 12.1%
- Activity (HT-29 [26]): 10.5%
- Activity (HT-29 [27]): 1.3%
- viability at 1 µM (HT-29 [28]): 67.1%
- Activity (HT-29 [29]): 15.8%
- Activity (HT-29 [30]): 16.8%
- Activity (HT-29 [31]): 0.4%
- Activity (HT-29 [5]): Active
- IC50 (HCT-116): 2.13 µM
- IC50 (MDA-MB-231): 2.94 µM
- IC50 (A549): 1.17 µM
- IC50 (MCF7 [32]): 0.11 µM
- IC50 (MCF7 [33]): 0.52 µM
- IC50 (K562 [34]): 0.44 µM
